Assay results reported in US9795139B2, “Molecules having pesticidal utility, and intermediates, compositions, and processes, related thereto” (priority 2015, dated 2017).
Like-named read-outs stand apart in the source and are kept apart here.

What was measured:
Type in all cases: in vivo
[1] = test system: Beet Armyworm (Spodoptera exigua, LAPHEG); assay: Bioassay on Beet Armyworm (BAW), 128-well diet tray assay; conditions: 168 h, read-out: BAW % Control (or Mortality) rating
How it was run: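 Diet in each of eight wells received 50 μg/cm^2 of test molecule (90:10 acetone-water, dried), then one to five second-instar larvae were added. Mortality (%) was scored after five to seven days at 25° C. under 14:10 light-dark and averaged across the wells.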

[2] = test system: Cabbage Looper (Trichoplusia ni, TRIPNI); assay: Bioassay on Cabbage Looper (CL), 128-well diet tray assay; conditions: 168 h, read-out: CL % Control (or Mortality) rating
How it was run: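 Using eight wells per molecule, artificial diet was dosed at 50 μg/cm^2 with compound in 90:10 acetone-water and dried before one to five second-instar larvae were added per well. Covered vented trays were kept at 25° C. with 14:10 light-dark for five to seven days, then per-well percent mortality was recorded and averaged.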

[3] = test system: Yellow Fever Mosquito (Aedes aegypti, AEDSAE); conditions: about 1 day-old larvae, 96-well plate from 4000 ppm DMSO master, 3 days at room temperature
How it was run: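 Each well was scored for mortality after 3 days at room temperature under a non-evaporative lid. Test molecules came from DMSO masters (4000 ppm stock) diluted with water/acetone 90:10 and dispensed into six replicate plates, which were then infested with roughly 1-day-old larvae in liver-powder water.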

[4] = 50 μg/cm^2 on artificial diet, second instar larvae, 25° C., five to seven days, average of eight wells

Compound | mortality at 50 µg/cm2 [1, 4] | mortality at 50 µg/cm2 [2, 4] | YFM % Control (or Mortality) rating [3] | mortality at 50 µg/cm2 [1] | mortality at 50 µg/cm2 [2]
N#CC1(NC(=O)c2cc(NC(=O)[C@H]3[C@H](c4cc(Cl)cc(Cl)c4)C3(Br)Br)ccc2Cl)CC1 (relative stereo) [PF30, trans-2-Chloro-N-(1-cyanocyclopropyl)-5-(2,2-dibromo-3-(3,5-dichlorophenyl)-cyclopropane-1-carboxamido)benzamide] | 50 to 100% | 50 to 100% | D (No activity noticed in this bioassay) | – | –
O=C(NC1CC(F)(F)C1)c1cc(NC(=O)[C@H]2[C@H](c3cc(Cl)cc(Cl)c3)C2(Br)Br)ccc1Cl (relative stereo) [PF31, trans-2-Chloro-5-(2,2-dibromo-3-(3,5-dichlorophenyl)cyclopropane-1-carboxamido)-N-(3,3-difluorocyclobutyl)benzamide] | 50 to 100% | 50 to 100% | B (More than 0-Less than 80) | – | –
CC1(NC(=O)c2cc(NC(=O)[C@H]3[C@H](c4cc(Cl)cc(Cl)c4)C3(Cl)Cl)ccc2Cl)CC1 (relative stereo) [PF32, trans-2-Chloro-5-(2,2-dichloro-3-(3,5-dichloro-phenyl)cyclopropanecarboxamido)-N-(1-methylcyclopropyl)benzamide] | 50 to 100% | 50 to 100% | A (80-100) | – | –
COC(=O)C1(NC(=O)c2cc(NC(=O)[C@H]3[C@H](c4cc(Cl)cc(Cl)c4)C3(Cl)Cl)ccc2Cl)CCCC1 (relative stereo) [PF33, trans-Methyl 1-(2-chloro-5-(2,2-dichloro-3-(3,5-dichlorophenyl)cyclopropane-carboxamido)benzamido)cyclopentanecarboxylate] | 0 to 50% | 50 to 100% | D (No activity noticed in this bioassay) | – | –
O=C(N[C@@H]1CON(CC(F)(F)F)C1=O)c1cc(NC(=O)C2C(c3ccc(Cl)c(Cl)c3)C2(Cl)Cl)ccc1Cl (stereo in doubt) [Molecule F79, trans-2-Chloro-5-(2,2-dichloro-3-(3,4-dichlorophenyl)cyclopropane-1-carboxamido)-N—((R)-3-oxo-2-(2,2,2-trifluoroethyl)isoxazolidin-4-yl)benzamide] | 50 to 100% | 50 to 100% | A (80-100) | – | –
O=C(N[C@@H]1CON(CC(F)(F)F)C1=O)c1cc(NC(=O)C2C(c3cc(Cl)c(Cl)c(Cl)c3)C2(Cl)Cl)ccc1Cl (stereo in doubt) [Molecule F80, trans-2-Chloro-5-(2,2-dichloro-3-(3,4,5-trichlorophenyl)cyclopropane-1-carboxamido)-N—((R)-3-oxo-2-(2,2,2-trifluoroethyl)isoxazolidin-4-yl)benzamide] | 50 to 100% | 50 to 100% | A (80-100) | – | –
O=C(NC1CCC1)c1cc(NC(=O)C2C(c3cc(Cl)c(Cl)c(Cl)c3)C2(Cl)Cl)ccc1Cl (stereo not drawn) [Molecule F42, trans-2-Chloro-N-cyclobutyl-5-(2,2-dichloro-3-(3,4-trichlorophenyl)cyclopropanecarboxamido)benzamide] | 50 to 100% | 50 to 100% | D (No activity noticed in this bioassay) | – | –
N#CC1(NC(=O)c2cc(NC(=O)[C@H]3[C@H](c4cc(Cl)c(Cl)c(Cl)c4)C3(Cl)Cl)ccc2Cl)CC1 [Molecule F63, 2-Chloro-N-(1-cyanocyclopropyl)-5-((1R,3R)-2,2-dichloro-3-(3,4,5-trichloro-phenyl)cyclopropane-1-carboxamido)benzamide] | 50 to 100% | 50 to 100% | A (80-100) | – | –
N#CC1(NC(=O)c2cc(NC(=O)[C@@H]3[C@@H](c4cc(Cl)c(Cl)c(Cl)c4)C3(Cl)Cl)ccc2Cl)CC1 [Molecule F64, 2-Chloro-N-(1-cyanocyclopropyl)-5-((1S,3S)-2,2-dichloro-3-(3,4,5-trichloro-phenyl)cyclopropane-1-carboxamido)benzamide] | 50 to 100% | 50 to 100% | A (80-100) | – | –
N#CC1(NC(=O)c2cc(NC(=O)C3C(c4cc(Cl)cc(Cl)c4)C3(Cl)Br)ccc2Cl)CC1 (stereo not drawn) [Molecule F72] | – | – | D (No activity noticed in this bioassay) | 50 to 100% | 50 to 100%
O=C(NC1CC(F)(F)C1)c1cc(NC(=O)[C@H]2[C@H](c3cc(Cl)cc(Cl)c3)C2(Cl)Cl)ccc1Cl [Molecule F73, 2-Chloro-5-((1R,3R)-2,2-dichloro-3-(3,5-dichlorophenyl)cyclopropanecarbox-amido)-N-(3,3-difluorocyclobutyl)benzamide] | 50 to 100% | 50 to 100% | A (80-100) | – | –
O=C(NC1CC(F)(F)C1)c1cc(NC(=O)[C@@H]2[C@@H](c3cc(Cl)cc(Cl)c3)C2(Cl)Cl)ccc1Cl [Molecule F74, 2-Chloro-5-((1S,3S)-2,2-dichloro-3-(3,5-dichlorophenyl)cyclopropane-1-carboxamido)-N-(3,3-difluorocyclobutyl)benzamide] | 50 to 100% | 50 to 100% | A (80-100) | – | –
N#CC1(NC(=O)c2cc(NC(=O)[C@@H]3[C@@H](c4cc(Cl)cc(Cl)c4)C3(Cl)Cl)ccc2Cl)CC1 [Molecule F76, 2-Chloro-N-(1-cyanocyclopropyl)-5-((1S,3S)-2,2-dichloro-3-(3,5-dichloro-phenyl)cyclopropanecarboxamido)benzamide] | 50 to 100% | 50 to 100% | A (80-100) | – | –
N#Cc1cc(Cl)cc(C2C(C(=O)Nc3ccc(Cl)c(C(=O)NC4CC(F)(F)C4)c3)C2(Cl)Cl)c1 (stereo not drawn) [Molecule F77, trans-2-Chloro-5-(2,2-dichloro-3-(3-chloro-5-cyanophenyl)cyclopropane-1-carboxamidocarboxamido)-N-(3,3-difluorocyclobutyl)benzamide] | 50 to 100% | 50 to 100% | A (80-100) | – | –
O=C(N[C@@H]1CON(CC(F)(F)F)C1=O)c1cc(NC(=O)C2C(c3cc(Cl)cc(Cl)c3)C2(Cl)Cl)ccc1Cl (stereo partly drawn) [PF28, trans-2-Chloro-5-(2,2-dichloro-3-(3,5-dichlorophenyl)cyclopropane-1-carbox-amido)-N—((R)-3-oxo-2-(2,2,2-trifluoroethyl)isoxazolidin-4-yl)benzamide] | 50 to 100% | 50 to 100% | A (80-100) | – | –
O=C(NC1CCNC1=O)c1cc(NC(=O)C2C(c3cc(Cl)cc(Cl)c3)C2(Cl)Cl)ccc1Cl (stereo not drawn) [PF29, trans-2-Chloro-5-(2,2-dichloro-3-(3,5-dichlorophenyl)cyclopropane-1-carbox-amido)-N-(2-oxopyrrolidin-3-yl)benzamide] | 50 to 100% | 50 to 100% | B (More than 0-Less than 80) | – | –
O=C(NN1CCOC1=O)c1cc(NC(=O)C2C(c3cc(Cl)cc(Cl)c3)C2(Cl)Cl)ccc1Cl (stereo not drawn) [PF34, trans-2-Chloro-5-(2,2-dichloro-3-(3,5-dichlorophenyl)cyclopropanecarbox-amido)-N-(2-oxooxazolidin-3-yl)benzamide] | 50 to 100% | 50 to 100% | A (80-100) | – | –
O=C(NC1CCSC1=O)c1cc(NC(=O)C2C(c3cc(Cl)cc(Cl)c3)C2(Cl)Cl)ccc1Cl (stereo not drawn) [PF36, trans-2-Chloro-5-(2,2-dichloro-3-(3,5-dichlorophenyl)cyclopropane-1-carbox-amido)-N-(2-oxotetrahydrothiophen-3-yl)benzamide] | 50 to 100% | 50 to 100% | A (80-100) | – | –
O=C(NC1CCOC1=O)c1cc(NC(=O)C2C(c3cc(Cl)cc(Cl)c3)C2(Cl)Cl)ccc1Cl (stereo not drawn) [PF37, trans-2-Chloro-5-(2,2-dichloro-3-(3,5-dichlorophenyl)cyclopropane-1-carbox-amido)-N-(2-oxotetrahydrofuran-3-yl)benzamide] | 50 to 100% | 50 to 100% | A (80-100) | – | –
O=C(NN1CC(CN2CCOCC2)OC1=O)c1cc(NC(=O)C2C(c3cc(Cl)cc(Cl)c3)C2(Cl)Cl)ccc1Cl (stereo not drawn) [PF41, trans-2-Chloro-5-(2,2-dichloro-3-(3,5-dichlorophenyl)cyclopropane-1-carbox-amido)-N-(5-(morpholinomethyl)-2-oxooxazolidin-3-yl)benzamide] | 0 to 50% | 50 to 100% | A (80-100) | – | –
O=C(NC1(C(=O)NCC(F)(F)F)CC1)c1cc(NC(=O)C2C(c3cc(Cl)cc(Cl)c3)C2(Cl)Cl)ccc1Cl (stereo not drawn) [PF42, trans-2-Chloro-5-(2,2-dichloro-3-(3,5-dichlorophenyl)cyclopropane-1-carbox-amido)-N-(1-((2,2,2-trifluoroethyl)carbamoyl)cyclopropyl)benzamide] | 50 to 100% | 50 to 100% | A (80-100) | – | –
